# From patent US10899710B2, “Pyridines and their use in the treatment of cancer” (The United States of America, as represented by the …, priority 2015, dated 2021)
# Structures can show the parent of a compound that is named as a salt.
# Experiments:
# [1] = system: MDA-MB-435; experiment: Growth inhibition GI50, MDA-MB-435; assay type: cell-based; settings: Homo sapiens, Melanoma
# Procedure: (§1) Cell lines were plated 2000 cells/well in 96-well black optical plates in the presence of 10% FBS media containing 25 nM selenite. The following day cells were treated with various concentrations of the compound of Example 1 (0.1% DMSO final) and incubated for 72 hrs. After the incubation Cell-Quanti Blue reagent was added to each well and incubated for additional 3 hrs. Fluorescence was read ex:530 nm/em:590 nm, and percent of viability was determined using DMSO vehicle and no cell (blank) controls.
# (§2) Further results obtained in similar experiments were as indicated below (GI50 refers to concentration of compound yielding 50% growth inhibition; E denotes an exponent to the base 10).
# [2] = system: UACC-62; experiment: Growth inhibition GI50, UACC-62; assay type: cell-based; settings: Homo sapiens, Melanoma
# Procedure: as §1, §2
# [3] = system: COLO 205; experiment: Growth inhibition GI50, COLO 205; assay type: cell-based; settings: Homo sapiens, Colon Cancer
# Procedure: as §1, §2
# [4] = system: MALME-3M; experiment: Growth inhibition GI50, MALME-3M; assay type: cell-based; settings: Homo sapiens, Melanoma
# Procedure: as §1, §2
# [5] = system: SNB-19; experiment: Growth inhibition GI50, SNB-19; assay type: cell-based; settings: Homo sapiens, CNS Cancer
# Procedure: as §1, §2
# [6] = system: HT29; experiment: Growth inhibition GI50, HT29; assay type: cell-based; settings: Homo sapiens, HT-29, Colon Cancer
# Procedure: as §1, §2
# [7] = system: T-47D; experiment: Growth inhibition GI50, T-47D; assay type: cell-based; settings: Homo sapiens, T47D, Breast Cancer
# Procedure: as §1, §2
# [8] = system: SK-MEL-2; experiment: Growth inhibition GI50, SK-MEL-2; assay type: cell-based; settings: Homo sapiens, Melanoma
# Procedure: as §1, §2
# [9] = system: A549/ATCC; experiment: Growth inhibition GI50, A549/ATCC; assay type: cell-based; settings: Homo sapiens, Non-Small Cell Lung Cancer
# Procedure: as §1, §2
# [10] = system: NCI-H522; experiment: Growth inhibition GI50, NCI-H522; assay type: cell-based; settings: Homo sapiens, Non-Small Cell Lung Cancer
# Procedure: as §1, §2
# [11] = system: NCI-H23; experiment: Growth inhibition GI50, NCI-H23; assay type: cell-based; settings: Homo sapiens, Non-Small Cell Lung Cancer
# Procedure: as §1, §2
# [12] = system: RPMI-8226; experiment: Growth inhibition GI50, RPMI-8226; assay type: cell-based; settings: Homo sapiens, Leukemia
# Procedure: as §1, §2
# [13] = system: SF-295; experiment: Growth inhibition GI50, SF-295; assay type: cell-based; settings: Homo sapiens, CNS Cancer
# Procedure: as §1, §2
# [14] = target: T1, gluthathione reductase (GR) (Homo sapiens, UniProt P00390); experiment: Inhibition of recombinant GR (GSSG assay); assay type: biochemical
# T1 sequence (P00390 44-522): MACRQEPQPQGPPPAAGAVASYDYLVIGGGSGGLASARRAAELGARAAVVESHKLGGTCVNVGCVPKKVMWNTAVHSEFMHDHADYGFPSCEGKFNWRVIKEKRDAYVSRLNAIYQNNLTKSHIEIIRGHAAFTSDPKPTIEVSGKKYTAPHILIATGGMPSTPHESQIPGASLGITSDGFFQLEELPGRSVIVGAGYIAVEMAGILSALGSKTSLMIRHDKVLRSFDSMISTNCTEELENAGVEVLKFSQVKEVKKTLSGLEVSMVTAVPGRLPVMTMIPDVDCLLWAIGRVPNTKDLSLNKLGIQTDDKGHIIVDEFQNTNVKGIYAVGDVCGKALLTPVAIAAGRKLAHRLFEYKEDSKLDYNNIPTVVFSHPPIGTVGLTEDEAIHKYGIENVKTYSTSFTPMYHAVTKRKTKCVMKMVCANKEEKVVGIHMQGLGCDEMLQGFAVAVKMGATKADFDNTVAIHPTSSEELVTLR
# Procedure: Small molecule inhibition of recombinant thioredoxin reductase 1 (TrxR1) and gluthathione reductase (GR) was examined in 96-well plate format. 15 nM TrxR1 was incubated in the presence of 250 μM NADPH, 0.1 mg/ml BSA, and various concentrations of the compound of Example 1 (1% DMSO final) in 50 mM Tris (pH 7.5) and 2 mM EDTA buffer for 15 minutes. Following the incubation period, 2.5 mM DTNB was added to each well and the change in O.D. at 412 nm was followed. Percent activity was determined using DMSO vehicle and no TrxR1 (blank) controls. 2 nM GR was incubated in the presence of 250 μM NADPH, 0.1 mg/ml BSA, and various concentrations of compounds (1% DMSO final) in 50 mM Tris (pH 7.5) and 2 mM EDTA buffer for 15 minutes. Following the incubation period, 1 mM GSSG was added to each well and the change in O.D. at 340 nm was followed. Percent activity was determined using DMSO vehicle and no GR (blank) controls.
# [15] = system: HOP-92; experiment: Growth inhibition GI50, HOP-92; assay type: cell-based; settings: Homo sapiens, Non-Small Cell Lung Cancer
# Procedure: as §1, §2
# [16] = system: UACC-257; experiment: Growth inhibition GI50, UACC-257; assay type: cell-based; settings: Homo sapiens, Melanoma
# Procedure: as §1, §2
# [17] = system: NCI/ADR-RES; experiment: Growth inhibition GI50, NCI/ADR-RES; assay type: cell-based; settings: Homo sapiens, Ovarian Cancer
# Procedure: as §1, §2
# [18] = system: NCI-H226; experiment: Growth inhibition GI50, NCI-H226; assay type: cell-based; settings: Homo sapiens, Non-Small Cell Lung Cancer
# Procedure: as §1, §2
# [19] = system: CAKI-1; experiment: Growth inhibition GI50, CAKI-1; assay type: cell-based; settings: Homo sapiens, Renal Cancer
# Procedure: as §1, §2
# [20] = system: IGROV1; experiment: Growth inhibition GI50, IGROV1; assay type: cell-based; settings: Homo sapiens, IGROV-1, Ovarian Cancer
# Procedure: as §1, §2
# [21] = system: SK-MEL-5; experiment: Growth inhibition GI50, SK-MEL-5; assay type: cell-based; settings: Homo sapiens, Melanoma
# Procedure: as §1, §2
# [22] = system: OVCAR-4; experiment: Growth inhibition GI50, OVCAR-4; assay type: cell-based; settings: Homo sapiens, Ovarian Cancer
# Procedure: as §1, §2
# [23] = system: MCF7; experiment: Growth inhibition GI50, MCF7; assay type: cell-based; settings: Homo sapiens, Breast Cancer
# Procedure: as §1, §2
# [24] = system: NCI-H322M; experiment: Growth inhibition GI50, NCI-H322M; assay type: cell-based; settings: Homo sapiens, Non-Small Cell Lung Cancer
# Procedure: as §1, §2
# [25] = system: SN12C; experiment: Growth inhibition GI50, SN12C; assay type: cell-based; settings: Homo sapiens, Renal Cancer
# Procedure: as §1, §2
# [26] = system: PC-3; experiment: Growth inhibition GI50, PC-3; assay type: cell-based; settings: Homo sapiens, Prostate Cancer
# Procedure: as §1, §2
# [27] = system: HCT-116; experiment: Growth inhibition GI50, HCT-116; assay type: cell-based; settings: Homo sapiens, Colon Cancer
# Procedure: as §1, §2
# [28] = system: HCT-15; experiment: Growth inhibition GI50, HCT-15; assay type: cell-based; settings: Homo sapiens, Colon Cancer
# Procedure: as §1, §2
# [29] = system: DU-145; experiment: Growth inhibition GI50, DU-145; assay type: cell-based; settings: Homo sapiens, Prostate Cancer
# Procedure: as §1, §2
# [30] = system: U251; experiment: Growth inhibition GI50, U251; assay type: cell-based; settings: Homo sapiens, U-251, CNS Cancer
# Procedure: as §1, §2
# [31] = system: OVCAR-5; experiment: Growth inhibition GI50, OVCAR-5; assay type: cell-based; settings: Homo sapiens, Ovarian Cancer
# Procedure: as §1, §2
# [32] = system: RXF 393; experiment: Growth inhibition GI50, RXF 393; assay type: cell-based; settings: Homo sapiens, Renal Cancer
# Procedure: as §1, §2
compound,measurement,setting,value
"COc1ccc([N+](=O)[O-])c(S(=O)(=O)c2ccc(Cl)cc2)n1 [Example 1, 2-((4-Chlorophenyl)sulphonyl)-6-methoxy-3-nitropyridine Hydrochloride]",GI50,[1],1.75 µM
same,GI50,[2],3.56 µM
same,GI50,[3],1.96 µM
same,GI50,[4],2 µM
same,GI50,[5],13 µM
same,GI50,[6],3.34 µM
same,GI50,[7],2.12 µM
same,GI50,[8],11.4 µM
same,GI50,[9],18.5 µM
same,GI50,[10],1.86 µM
same,GI50,[11],4.58 µM
same,GI50,[12],3.38 µM
same,GI50,[13],13.1 µM
same,IC50,"[14]; Biological Example 1, 2 nM GR, 15 minutes incubation",> 100 µM
same,IC50,[14]; Biological Example 4,> 100 µM
same,GI50,[15],2 µM
same,GI50,[16],11.3 µM
same,GI50,[17],4.93 µM
same,GI50,[18],10.2 µM
same,GI50,[19],1.61 µM
same,GI50,[20],12.2 µM
same,GI50,[21],12 µM
same,GI50,[22],2.32 µM
same,GI50,[23],2.24 µM
same,GI50,[24],20.4 µM
same,GI50,[25],3.82 µM
same,GI50,[26],17.3 µM
same,GI50,[27],2.9 µM
same,GI50,[28],2.05 µM
same,GI50,[29],9.63 µM
same,GI50,[30],8.69 µM
same,GI50,[31],3.13 µM
same,GI50,[32],4.45 µM
